Data on 20 compounds can be found in patent US11014911B2, “CDK2 inhibitors” (Pfizer Inc., priority 2019, dated 2021).

Structures are written as SMILES.

For the experiment, the target named is CDK2/Cyclin E1 full length (Homo sapiens (Human), UniProt P24941). Briefly: CDK2/Cyclin E1 full length mobility shift assay. Type of experiment: biochemical.
The term Ki denotes the dissociation constant of the complex between target and ligand, obtained from inhibition or displacement. As to `COC[C@H](C)NC(=O)O[C@@H]1CC[C@H](c2cc(NC(=O)c3cc(OC)nn3C)n[nH]2)C1` [Example 518, (1R,3S)-3-(3-{[(3-methoxy-1-methyl-1H-pyrazol-5-yl)carbonyl]amino}-1H-pyrazol-5-yl)cyclopentyl [(2S)-1-methoxypropan-2-yl]carbamate], the Ki came to 1.43 nM. As for `COC[C@H](C)NC(=O)O[C@@H]1CC[C@H](c2cc(NC(=O)Cc3ccc(OC)nc3)n[nH]2)C1` [Example 519, (1R,3S)-3-(3-{[(6-methoxypyridin-3-yl)acetyl]amino}-1H-pyrazol-5-yl)cyclopentyl [(2S)-1-methoxypropan-2-yl]carbamate], the figure is 0.56 nM. For `COC[C@H](C)NC(=O)O[C@@H]1CC[C@H](c2cc(NC(=O)Cc3cnc(OC)cn3)n[nH]2)C1` [Example 520, (1R,3S)-3-(3-{[(5-methoxypyrazin-2-yl)acetyl]amino}-1H-pyrazol-5-yl)cyclopentyl [(2S)-1-methoxypropan-2-yl]carbamate], the Ki came to 2.88 nM.

Turning to `COCc1cc(C(=O)Nc2cc([C@H]3CC[C@@H](OC(=O)N[C@@H](C)COC)C3)n[nH]2)n(C)n1` [Example 521, (1R,3S)-3-[5-({[3-(methoxymethyl)-1-methyl-1H-pyrazol-5-yl]carbonyl}amino)-1H-pyrazol-3-yl]cyclopentyl [(2S)-1-methoxypropan-2-yl]carbamate], the Ki came out at 1.95 nM. As for `COC[C@H](C)NC(=O)O[C@@H]1CC[C@H](c2cc(NC(=O)Cc3ncc(OC)s3)n[nH]2)C1` [Example 522, (1R,3S)-3-(3-{[(5-methoxy-1,3-thiazol-2-yl)acetyl]amino}-1H-pyrazol-5-yl)cyclopentyl [(2S)-1-methoxypropan-2-yl]carbamate], the figure is 3.05 nM; as for `COC[C@H](C)NC(=O)O[C@@H]1CC[C@H](c2cc(NC(=O)Cc3cnc(C(F)(F)F)cn3)n[nH]2)C1` [Example 523, (1R,3S)-3-[3-({[5-(trifluoromethyl)pyrazin-2-yl]acetyl}amino)-1H-pyrazol-5-yl]cyclopentyl [(2S)-1-methoxypropan-2-yl]carbamate], 2.49 nM. As for `COc1ccc(CC(=O)Nc2cc([C@@H]3CC[C@H](OC(=O)N[C@H]4CC[C@@H](O)CC4)C3)[nH]n2)cn1` [Example 553, (1S,3R)-3-(3-{[(6-methoxypyridin-3-yl)acetyl]amino}-1H-pyrazol-5-yl)cyclopentyl (cis-4-hydroxycyclohexyl)carbamate], the figure is 0.41 nM; as for `COc1ccc(CC(=O)Nc2cc([C@@H]3CC[C@H](OC(=O)N[C@H]4CC[C@H](O)CC4)C3)[nH]n2)cn1` [Example 556, (1S,3R)-3-(3-{[(6-methoxypyridin-3-yl)acetyl]amino}-1H-pyrazol-5-yl)cyclopentyl (trans-4-hydroxycyclohexyl)carbamate], 0.46 nM; as for `C[C@]1(O)CC[C@H](NC(=O)O[C@H]2CC[C@@H](c3cc(NC(=O)Cc4ccc(F)cc4)n[nH]3)C2)CC1` [Example 561, (1S,3R)-3-(3-{[(4-fluorophenyl)acetyl]amino}-1H-pyrazol-5-yl)cyclopentyl (trans-4-hydroxy-4-methylcyclohexyl)carbamate], 1.8 nM. As for `COc1ccc(CC(=O)Nc2cc([C@H]3CC[C@@H](OC(=O)N[C@H]4CC[C@](C)(O)CC4)C3)[nH]n2)cc1` [Example 567, (1R,3S)-3-(3-{[(4-methoxyphenyl)acetyl]amino}-1H-pyrazol-5-yl)cyclopentyl (trans-4-hydroxy-4-methylcyclohexyl)carbamate], the figure is 1.61 nM; as for `CC(C)(O)CNC(=O)O[C@@H]1CC[C@H](c2cc(NC(=O)Cc3cc(F)cc(F)c3)n[nH]2)C1` [Example 574, (1R,3S)-3-(3-{[(3,5-difluorophenyl)acetyl]amino}-1H-pyrazol-5-yl)cyclopentyl (2-hydroxy-2-methylpropyl)carbamate], 4.07 nM; as for `O=C(Cc1cc(F)cc(F)c1)Nc1cc([C@@H]2CC[C@H](OC(=O)NC[C@H]3C[C@@H](O)C3)C2)[nH]n1` [Example 575, (1S,3R)-3-(3-{[(3,5-difluorophenyl)acetyl]amino}-1H-pyrazol-5-yl)cyclopentyl [(cis-3-hydroxycyclobutyl)methyl] carbamate], 2.28 nM. For `O=C(Cc1cc(F)cc(F)c1)Nc1cc([C@@H]2CC[C@H](OC(=O)NC[C@H]3C[C@H](O)C3)C2)[nH]n1` [Example 576, (1S,3R)-3-(3-{[(3,5-difluorophenyl)acetyl]amino}-1H-pyrazol-5-yl)cyclopentyl [(trans-3-hydroxycyclobutyl)methyl] carbamate], the Ki is 1.99 nM. In the case of `O=C(Cc1ccc(C(F)(F)F)nc1)Nc1cc([C@@H]2CC[C@H](OC(=O)NC[C@H]3C[C@H](O)C3)C2)[nH]n1` [Example 577, (1S,3R)-3-[3-({[6-(trifluoromethyl)pyridin-3-yl]acetyl}amino)-1H-pyrazol-5-yl]cyclopentyl[(trans-3-hydroxycyclobutyl)methyl]-carbamate] it was 3.36 nM. `O=C(Cc1cc(F)cc(F)c1)Nc1cc([C@@H]2CC[C@H](OC(=O)NC[C@@H]3C[C@H]3CO)C2)[nH]n1` [Example 578, (1S,3R)-3-(3-{[(3,5-difluorophenyl)acetyl]amino}-1H-pyrazol-5-yl)cyclopentyl {[(1R,2R)-2-(hydroxymethyl)cyclopropyl]-methyl}carbamate]: the Ki is 3.64 nM. In the case of `O=C(Cc1cc(F)cc(F)c1)Nc1cc([C@@H]2CC[C@H](OC(=O)NC[C@H]3C[C@@H]3CO)C2)[nH]n1` [Example 579, (1S,3R)-3-(3-{[(3,5-difluorophenyl)acetyl]amino}-1H-pyrazol-5-yl)cyclopentyl {[(1S,2S)-2-(hydroxymethyl)cyclopropyl]-methyl}carbamate] it was 2.41 nM; in that of `O=C(Cc1ccc(C(F)(F)F)nc1)Nc1cc([C@@H]2CC[C@H](OC(=O)NC[C@H]3C[C@@H]3CO)C2)[nH]n1` [Example 580, (1S,3R)-3-[3-({[6-(trifluoromethyl)pyridin-3-yl]acetyl}amino)-1H-pyrazol-5-yl]cyclopentyl {[(1S,2S)-2-(hydroxymethyl)cyclopropyl]-methyl}carbamate], 3.38 nM; in that of `COc1cc(CC(=O)Nc2cc([C@@H]3CC[C@H](OC(=O)NCC4CCN(C(C)=O)CC4)C3)[nH]n2)ccn1` [Example 581, (1S,3R)-3-(3-{[(2-methoxypyridin-4-yl)acetyl]amino}-1H-pyrazol-5-yl)cyclopentyl[(1-acetylpiperidin-4-yl)methyl]carbamate], 2.62 nM. Regarding `CC(=O)N1CCC(CNC(=O)O[C@H]2CC[C@@H](c3cc(NC(=O)Cc4cc(F)cc(F)c4)n[nH]3)C2)CC1` [Example 582, (1S,3R)-3-(3-{[(3,5-difluorophenyl)acetyl]amino}-1H-pyrazol-5-yl)cyclopentyl [(1-acetylpiperidin-4-yl)methyl]carbamate], the Ki was 2.23 nM.

With `C[C@H]1CCN1C(=O)O[C@@H]1CC[C@H](c2cc(NC(=O)c3cncn3C)n[nH]2)C1` [Example 585, (1R,3S)-3-(3-{[(1-methyl-1H-imidazol-5-yl)carbonyl]amino}-1H-pyrazol-5-yl)cyclopentyl (2S)-2-methylazetidine-1-carboxylate], the Ki worked out at 2.57 nM.
